From paper PMC6981581, “N-(2-Arylmethylthio-4-Chloro-5-Methylbenzenesulfonyl)amide Derivatives as Potential Antimicrobial Agents—Synthesis and Biological Studies” (International Journal of Molecular Sciences, 2019)
≈ marks a conversion by molar mass, not a printed value. Where “and” joins values, the source holds several entries; their conditions need not be identical. Equal entries are not always repeated. Where two headings read alike, the source gives them in different places.

Experiments:
Type in all cases: cell-based
MCF-7 (breast cancer) = experiment: MTT cell viability assay; conditions: Homo sapiens, MCF7, 72 h incubation, mean ± SD
Description: (§1) Analysis was performed using the MTT test and 72 h of incubation.
(§2) All chemicals were obtained from Sigma-Aldrich (St. Louis, MO, USA). The MCF-7 and HeLa cell lines were purchased from Cell Lines Services (Eppelheim, Germany), the HCT-116 cell line was purchased from ATCC (ATCC-No: CCL-247). Cells were cultured in Dulbecco’s modified Eagle’s medium (DMEM) supplemented with 10% fetal bovine serum, 2 mM glutamine, 100 units/mL penicillin, and 100 μg/mL streptomycin. Cultures were held in an incubator (Heraceus, HeraCell) in a humidified atmosphere with 5% CO2 at 37 °C.
(§3) Cell viability was evaluated using the MTT (3-(4,5-dimethylthiazol-2-yl)-2,5-diphenyltetrazolium bromide) assay. Stock solutions of the studied compounds were obtained in 100% DMSO. […] Cells at a density of 5 × 10^3 cells/well, seeded in 96-well plates, were treated for 72 h with the tested compounds in the concentration range 1–100 μM (1, 10, 25, 50 and 100 μM). After treatment, cells were incubated for 2 h with MTT (0.5 mg/mL) at 37 °C. Cells were lysed with DMSO and the absorbance of the formazan solution was measured at 550 nm with a plate reader (1420 multilabel counter, Victor, Jügesheim, Germany). Values are expressed as the mean ± SD of at least three independent experiments conducted in triplicate.

HCT-116 (colon cancer) = experiment: MTT cell viability assay; conditions: Homo sapiens, 72 h incubation, mean ± SD
Description: as §1, §2, §3

HeLa (cervical cancer) = experiment: MTT cell viability assay; conditions: Homo sapiens, 72 h incubation, mean ± SD
Description: as §1, §2, §3

[1] = system: Candida albicans ATCC 10231; experiment: Broth dilution MIC/MFC, reference fungal strain; conditions: for MFC/MIC: C. a. ATCC 10231; for MFC / MIC: Candida albicans, ATCC10231, C. albicans ATCC 10231; for MFC: read-out: MFC; for MIC: read-out: MIC
Description: (§4) The tests were carried out using a serial dilution method, allowing the determination of MIC (minimal concentration inhibiting bacterial growth), MBC (minimal bactericidal concentration), and MFC (minimal fungicidal concentration) values.
(§5) Antimicrobial activity was tested using the following reference strains: Staphylococcus aureus ATCC 6538 (MSSA), Staphylococcus aureus ATCC 43300 (MRSA), Staphylococcus epidermidis PCM 2118, Escherichia coli ATCC 11229, Pseudomonas aeruginosa ATCC 15442, Proteus vulgaris NCTC 4635, Enterococcus faecalis ATCC 11420, and Candida albicans ATCC 10231.
(§6) A broth dilution method was used to determine minimal inhibitory concentration (MIC) for tested compounds as recommended by Clinical Laboratory Standards Institute (CLSI) guidelines. Investigated compounds were diluted in Mueller Hinton Broth 2 (Sigma-Aldrich Co., St. Louis, MO, USA) in polypropylene 96-well plates and initial inoculum 5 × 10^5 cfu/mL were incubated at 37 °C for 18 h. MIC was taken as the lowest drug concentration at which an observable growth was inhibited. […] The loopful (10 µL) of the tested sample was transferred to Tryptic Soy Agar (TSA, Becton-Dickinson, Franklin Lakes, NJ, USA) and incubated at 37 °C for 48 h. […] Drug Solutions were made fresh on the day of the assay. All experiments were performed in triplicate.

[2] = system: Enterococcus faecalis ATCC 11420; experiment: Broth dilution MIC/MBC, reference strain; conditions: for MBC/MIC: E. f. ATCC 11420; for MBC / MIC: Enterococcus faecalis, ATCC11420, E. faecalis ATCC 11420; for MBC: read-out: MBC; for MIC: read-out: MIC
Description: as §4, §5, §6

[3] = system: Staphylococcus aureus ATCC 6538 (MSSA); experiment: Broth dilution MIC/MBC, reference strain; conditions: for MBC/MIC: S. a. ATCC 6538; for MBC / MIC: Staphylococcus aureus, S. aureus ATCC 6538; for MBC: read-out: MBC; for MIC: read-out: MIC
Description: as §4, §5, §6

[4] = system: Proteus vulgaris NCTC 4635; experiment: Broth dilution MIC/MBC, reference strain; conditions: for MBC/MIC: P. v. NCTC 4635; for MBC / MIC: Proteus vulgaris, NCTC4635, P. vulgaris NCTC 4635; for MBC: read-out: MBC; for MIC: read-out: MIC
Description: as §4, §5, §6

[5] = system: Staphylococcus aureus ATCC 43300 (MRSA); experiment: Broth dilution MIC/MBC, reference strain; conditions: for MBC/MIC: S. a. ATCC 43300; for MBC / MIC: Staphylococcus aureus, S. aureus ATCC 43300; for MBC: read-out: MBC; for MIC: read-out: MIC
Description: as §4, §5, §6

[6] = system: Staphylococcus epidermidis PCM 2118; experiment: Broth dilution MIC/MBC, reference strain; conditions: for MBC/MIC: S. e. PCM 2118; for MIC: read-out: MIC
Description: as §4, §5, §6

[7] = system: Pseudomonas aeruginosa ATCC 15442; experiment: Broth dilution MIC/MBC, reference strain; conditions: for MBC/MIC: P. a. ATCC 15442; for MBC / MIC: Pseudomonas aeruginosa, ATCC15442, P. aeruginosa ATCC 15442; for MBC: read-out: MBC; for MIC: read-out: MIC
Description: as §4, §5, §6

[8] = system: Escherichia coli ATCC 11229; experiment: Broth dilution MIC/MBC, reference strain; conditions: for MBC/MIC: E. c. ATCC 11229; for MBC / MIC: Escherichia coli, ATCC11229, E. coli ATCC 11229; for MBC: read-out: MBC; for MIC: read-out: MIC
Description: as §4, §5, §6

[9] = system: HaCaT cell line (human keratinocyte); experiment: MTT cell viability assay; conditions: MTT assay, 72 h incubation, mean ± SD, read-out: IC50 HaCaT
[10] = Staphylococcus epidermidis, PCM2118, S. epidermidis PCM 2118, read-out: MBC
[11] = Staphylococcus epidermidis, PCM2118, S. epidermidis PCM 2118

Row | SMILES | IC50 (MCF-7 (breast cancer)) | IC50 (HCT-116 (colon cancer)) | IC50 (HeLa (cervical cancer)) | MFC/MIC [1] | MFC [1] | MIC [1] | MBC/MIC [2] | MBC [2] | MIC [2] | MBC/MIC [3] | MBC [3] | MIC [3] | MBC/MIC [4] | MBC [4] | MIC [4] | MBC/MIC [5] | MBC [5] | MIC [5] | MBC/MIC [6] | MBC [6, 10] | other results
1 | Cc1cc(S(=O)(=O)NC(=O)CCC2CCCCC2)c(SCc2ccc(C(F)(F)F)cc2)cc1Cl [Compound 9, N-[4-Chloro-5-methyl-2-(4-trifluoromethylbenzylthio)benzenesulfonyl]-3-cyclohexylpropanamide] | 65 ± 3 µM | 78 ± 2 µM | 90 ± 4 µM | 2 | 128 µg/mL (≈ 240 µM) | 64 µg/mL (≈ 120 µM) | >16 | > 128 µg/mL | 8 µg/mL (≈ 15 µM) | >16 | > 128 µg/mL | 8 µg/mL (≈ 15 µM) | >2 | > 128 µg/mL | 64 µg/mL (≈ 120 µM) | >32 | > 128 µg/mL | 4 µg/mL (≈ 7.49 µM) | 2 | 4 to 16 µg/mL (≈ 7.49 to 30 µM) | MBC ([6]; S. epidermidis PCM 2118): 8 µg/mL (≈ 15 µM); MIC [6, 11]: 4 µg/mL (≈ 7.49 µM); MBC/MIC [7]: >1; MBC [7]: > 128 µg/mL; MIC [7]: 128 µg/mL (≈ 240 µM); MBC/MIC [8]: >1; MBC [8]: > 128 µg/mL; MIC [8]: 128 µg/mL (≈ 240 µM); IC50 [9]: 40 µg/mL and 74 µM
2 | Cc1cc(S(=O)(=O)NC(=O)CCC2CCCCC2)c(SCc2cccc3ccccc23)cc1Cl [Compound 11, N-[4-Chloro-5-methyl-2-(naphthalen-1-ylmethylthio)benzenesulfonyl]-3-cyclohexylpropanamide] | 82 ± 4 µM | 66 ± 1 µM | 42 ± 2 µM | 2 | 128 µg/mL (≈ 248 µM) | 64 µg/mL (≈ 124 µM) | >16 | > 128 µg/mL | 8 µg/mL (≈ 15.5 µM) | >16 | > 128 µg/mL | 8 µg/mL (≈ 15.5 µM) | >1 | > 128 µg/mL | > 128 µg/mL | >16 | > 128 µg/mL | 8 µg/mL (≈ 15.5 µM) | >32 | > 128 µg/mL | MIC [6, 11]: 4 µg/mL (≈ 7.75 µM); MBC/MIC [7]: >1; MBC [7]: > 128 µg/mL; MIC [7]: 128 µg/mL (≈ 248 µM); MBC/MIC [8]: >1; MBC [8]: > 128 µg/mL; MIC [8]: 128 µg/mL (≈ 248 µM); IC50 [9]: 42 µg/mL and 81 µM
3 | Cc1cc(S(=O)(=O)NC(=O)CCC2CCCCC2)c(SCc2ccc3ccccc3c2)cc1Cl [Compound 12, N-[4-Chloro-5-methyl-2-(naphthalen-2-ylmethylthio)benzenesulfonyl]-3-cyclohexylpropanamide] | 94 ± 3 µM | 77 ± 3 µM | 88 ± 3 µM | 2 | 128 µg/mL (≈ 248 µM) | 64 µg/mL (≈ 124 µM) | >4 | > 128 µg/mL | 32 µg/mL (≈ 62 µM) | 16 | 128 µg/mL (≈ 248 µM) | 8 µg/mL (≈ 15.5 µM) | >1 | > 128 µg/mL | 128 µg/mL (≈ 248 µM) | >16 | > 128 µg/mL | 8 µg/mL (≈ 15.5 µM) | 32 | 128 µg/mL (≈ 248 µM) | MIC [6, 11]: 4 µg/mL (≈ 7.75 µM); MBC/MIC [7]: 1; MBC [7]: 128 µg/mL (≈ 248 µM); MIC [7]: 128 µg/mL (≈ 248 µM); MBC/MIC [8]: >1; MBC [8]: > 128 µg/mL; MIC [8]: 128 µg/mL (≈ 248 µM); IC50 [9]: 47 µg/mL and 92 µM
